{"source": "patent US10662146B2", "about": "“Prodrugs of fencamfamine” (Praxis Bioresearch, LLC, priority 2015, dated 2020)", "key": {"[1]": {"assay": "Single dose intravenous PK study in male Sprague Dawley rats (plasma by LC-MS/MS)", "assay_type": "in vivo", "details": "mean; for Plasma concentration of PRX-002 (−) Isomer: PRX-002 (−) Isomer IV 2 mg/kg b.w.", "outline": "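Adult male Sprague Dawley rats (8-10 weeks) received IV bolus prodrug at 2 mg/kg PRX-002-equivalent unless specified, with 10 or 15 mg/kg in some studies; formulations in PEG 400/HPβCD/water (±DMSO), freshly prepared. Retro-orbital K2EDTA plasma sampled over 24 h; fencamfamine quantified by LC-MS/MS, AUC versus unconjugated fencamfamine.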"}, "[2]": {"system": "spontaneous locomotor activity", "assay": "Spontaneous locomotor activity (sLMA), intravenous administration", "assay_type": "in vivo, Male SD rats", "details": "i.v. 2 mg/kg, 90 min recording, vs vehicle", "description": "Male SD rats were intravenously administered with PRX-002(−) (2 mg/kg) and prodrug PRX-P4-003 [(25.8 mg/kg, equivalent to 10 mg/kg of PRX-002 (−)], and vehicle just before sLMA test.\nVehicle was: 10% PEG 400 (v/v)+30% (v/v) of (50% w/v) Hydroxypropyl-ß-cyclodextrin in water+60% (v/v) sterile water for injection (SWFI): 1 ml/kg volume.\nPRX-P4-003 solution was: 25.8 mg/ml PRX-P4-003 (25.8 mg/kg: equivalent to 10 mg/ml active drug, i.v. @volume of 1 ml/kg). 42.3 mg PRX-P4-003 was added to vehicle 1.639 ml, vortexed for 30 min under room temperature to get a uniform suspension solution, suspension solution was continuously stirred during dosage.\nThe PRX-P4-002(−) solution was: 2 mg/ml PRX-P4-002(−) (2 mg/kg, i.v.@volume of 1 ml/kg). 4.5 mg PRX-002(−) was added to 2.25 ml Vehicle, vortexed for 30 min under room temperature to get a clear solution, the solution was continuously stirred during dosage.\nRat was placed at the center of test chamber for the 90 min sLMA video recording. (n=3/group)."}}, "data": [{"smiles": "CCN[C@@H]1[C@@H]2CC[C@@H](C2)[C@H]1c1ccccc1", "note": "[PRX-002 (−) Isomer, (1R,2R,3S,4S)—N-Ethyl-3-phenylbicyclo[2.2.1]heptan-2-amine, reference compound]", "values": [{"measurement": "Plasma concentration of PRX-002 (−) Isomer", "setting": "[1]; 0.08 h", "value": 142.01}, {"measurement": "Plasma concentration of PRX-002 (−) Isomer", "setting": "[1]; 0.25 h", "value": 112.59}, {"measurement": "Plasma concentration of PRX-002 (−) Isomer", "setting": "[1]; 0.50 h", "value": 81.21}, {"measurement": "Plasma concentration of PRX-002 (−) Isomer", "setting": "[1]; 1.00 h", "value": 58.82}, {"measurement": "Plasma concentration of PRX-002 (−) Isomer", "setting": "[1]; 2.00 h", "value": 53.05}, {"measurement": "Plasma concentration of PRX-002 (−) Isomer", "setting": "[1]; 4.00 h", "value": 16.55}, {"measurement": "Plasma concentration of PRX-002 (−) Isomer", "setting": "[1]; 6.00 h", "value": 0.00}, {"measurement": "Plasma concentration of PRX-002 (−) Isomer", "setting": "[1]; 24.00 h", "value": 0.00}, {"measurement": "AUC% extrap of PRX-002 (−) Isomer", "setting": "[1]; PRX-002 (−) Isomer IV 2 mg/kg", "value": "14.056 ± 5.0710", "unit": "%"}, {"measurement": "AUC(0-inf)", "setting": "[1]; male, Sprague Dawley, rat, plasma, iv, 2 mg/kg, PRX-002 (−) Isomer IV 2 mg/kg, read-out: AUCinf of PRX-002 (−) Isomer", "value": "256 ± 44.3", "unit": "ng·h/mL"}, {"measurement": "AUC(0-t)", "setting": "[1]; male, Sprague Dawley, rat, plasma, iv, 2 mg/kg, PRX-002 (−) Isomer IV 2 mg/kg, read-out: AUClast of PRX-002 (−) Isomer", "value": "219 ± 23.9", "unit": "ng·h/mL"}, {"measurement": "clearance", "setting": "[1]; male, Sprague Dawley, rat, plasma, iv, 2 mg/kg, PRX-002 (−) Isomer IV 2 mg/kg, read-out: CL of PRX-002 (−) Isomer", "value": "133 ± 21", "unit": "mL/min/kg"}, {"measurement": "Cmax", "setting": "[1]; male, Sprague Dawley, rat, plasma, iv, 2 mg/kg, PRX-002 (−) Isomer IV 2 mg/kg, read-out: Cmax of PRX-002 (−) Isomer", "value": "143 ± 1.75", "unit": "ng/mL"}, {"measurement": "MRT last", "setting": "[1]; male, Sprague Dawley, rat, plasma, iv, 2 mg/kg, PRX-002 (−) Isomer IV 2 mg/kg, read-out: MRTlast of PRX-002 (−) Isomer", "value": "1.33 ± 0.118", "unit": "h"}, {"measurement": "half-life", "setting": "[1]; male, Sprague Dawley, rat, plasma, iv, 2 mg/kg, PRX-002 (−) Isomer IV 2 mg/kg, read-out: T1/2 of PRX-002 (−) Isomer (converted)", "value": "90.7 ± 13.4", "unit": "min"}, {"measurement": "Vd", "setting": "[1]; male, Sprague Dawley, rat, plasma, iv, 2 mg/kg, PRX-002 (−) Isomer IV 2 mg/kg, read-out: Vss of PRX-002 (−) Isomer", "value": "15.7 ± 0.339", "unit": "L/kg"}, {"measurement": "Tmax", "setting": "[1]; male, Sprague Dawley, rat, plasma, PRX-002 (−) Isomer IV 2 mg/kg, read-out: Tmax of PRX-002 (−) Isomer", "value": "8.22 ± 5.88", "unit": "min"}, {"measurement": "Spontaneous locomotor activity (sLMA): total traveling distance and duration", "setting": "[2]", "value": "significantly increased sLMA"}]}]}
